As a reminder, the CC50 is the concentration giving 50% cytotoxicity. One may read the IC50 as the concentration needed to halve the response being measured.

Series [1] can be described thus: Cytotoxicity against human THP-1 assessed as reduction in cell viability measured after 72 hrs by CCK-8 assay. In kind it is toxicity, cell-based. The following applies: THP-1 cells.
Series [2] deals with NACHT, LRR and PYD domains-containing protein 3 (Mus musculus) (UniProt Q8R4B8). In words: Binding affinity to NLRP3 in mouse RAW264.7 cells assessed as thermal stabilization at 100 uM at 52 to 56 degreeC incubated for 6 hrs by cellular thermal shift assay. It counts as cell-based.
Series [3] is described as follows: Fluorescence property of the compound in DMSO assessed as maximum absorption wavelength. In kind it is physicochemical.
A short description of series [4]: Fluorescence property of the compound in DMSO assessed as maximum emission wavelength. It counts as physicochemical.
A short description of series [5]: Fluorescence property of the compound in DMSO assessed as molar extinction coefficient. It counts as physicochemical.
The nature of series [6]: Fluorescence property of the compound in DMSO assessed as quantum yield. It counts as physicochemical.
The nature of series [7]: Drug distribution in cytoplasm of mouse RAW264.7 cells expressing NLRP3 assessed as increase in green fluorescence at 10 uM incubated for 0.5 hrs by Hoechst 33342 staining based confocal microscopic analysis. It counts as ADME, subcellular. The following applies: raw264.7, 0.5 h.
Series [8] has as its target NACHT, LRR and PYD domains-containing protein 3 (Mus musculus) (UniProt Q8R4B8). As to the kind of experiment: Binding affinity to NLRP3 in mouse RAW264.7 cells assessed as increase in mean fluorescence intensity at 10 uM incubated for 30 mins by beckman coulter based flow cytometry analysis. It counts as cell-based. On the technique in general: Flow cytometry measures light scatter and fluorescence of single cells or particles in a stream.

Series [9] shares this target. In words: Binding affinity to NLRP3 in mouse RAW264.7 cells assessed as increase in mean fluorescence intensity at 10 uM preincubated with LPS for 3 hrs followed by compound addition and measured after 30 mins by beckman coulter based flow cytometry analysis. It counts as cell-based.
Series [10] addresses NACHT, LRR and PYD domains-containing protein 3 (Homo sapiens, UniProt Q96P20). As to the kind of experiment: Inhibition of NLRP3 inflammasome activation in PMA differentiated LPS-primed human THP-1 cells assessed as reduction in nigericin-induced IL-1beta level pretreated for 2 hrs followed by nigericin addition and measured after 30 mins by ELISA. It counts as cell-based.

Activity calls are given as the source filed them. The rule behind the calls is not given here. Some results are limits rather than exact numbers.

Sequence of NACHT, LRR and PYD domains-containing protein 3 (Mus musculus) (Q8R4B8 whole entry, the tested form may be a part): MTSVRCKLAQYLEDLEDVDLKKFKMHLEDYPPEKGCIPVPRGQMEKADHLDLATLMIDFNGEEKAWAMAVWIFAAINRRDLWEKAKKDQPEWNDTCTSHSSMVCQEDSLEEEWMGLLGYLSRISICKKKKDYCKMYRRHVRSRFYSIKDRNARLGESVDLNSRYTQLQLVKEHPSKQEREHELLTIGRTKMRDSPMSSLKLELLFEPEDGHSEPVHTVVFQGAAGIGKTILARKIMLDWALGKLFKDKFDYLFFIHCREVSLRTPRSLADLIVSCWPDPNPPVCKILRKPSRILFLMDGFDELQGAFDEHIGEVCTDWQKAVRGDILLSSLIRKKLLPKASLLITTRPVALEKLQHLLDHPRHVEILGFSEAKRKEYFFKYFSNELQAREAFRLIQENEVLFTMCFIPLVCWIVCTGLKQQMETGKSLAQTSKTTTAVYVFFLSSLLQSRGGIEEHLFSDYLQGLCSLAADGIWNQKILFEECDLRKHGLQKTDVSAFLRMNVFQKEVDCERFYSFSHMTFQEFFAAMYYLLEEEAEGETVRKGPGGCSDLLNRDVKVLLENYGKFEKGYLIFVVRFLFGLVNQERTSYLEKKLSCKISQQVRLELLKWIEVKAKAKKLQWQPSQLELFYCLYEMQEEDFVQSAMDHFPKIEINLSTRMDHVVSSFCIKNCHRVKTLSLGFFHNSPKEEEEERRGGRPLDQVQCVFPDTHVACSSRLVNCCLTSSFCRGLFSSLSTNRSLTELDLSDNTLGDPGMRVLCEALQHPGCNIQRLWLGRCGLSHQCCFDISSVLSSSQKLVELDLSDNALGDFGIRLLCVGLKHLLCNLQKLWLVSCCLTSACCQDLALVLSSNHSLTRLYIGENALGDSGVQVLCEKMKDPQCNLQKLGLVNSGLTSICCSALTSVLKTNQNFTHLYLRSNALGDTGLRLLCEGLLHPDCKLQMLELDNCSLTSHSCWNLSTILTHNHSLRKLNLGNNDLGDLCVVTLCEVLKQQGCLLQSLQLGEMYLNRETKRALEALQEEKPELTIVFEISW
Sequence of NACHT, LRR and PYD domains-containing protein 3 (Q96P20 whole entry, the tested form may be a part): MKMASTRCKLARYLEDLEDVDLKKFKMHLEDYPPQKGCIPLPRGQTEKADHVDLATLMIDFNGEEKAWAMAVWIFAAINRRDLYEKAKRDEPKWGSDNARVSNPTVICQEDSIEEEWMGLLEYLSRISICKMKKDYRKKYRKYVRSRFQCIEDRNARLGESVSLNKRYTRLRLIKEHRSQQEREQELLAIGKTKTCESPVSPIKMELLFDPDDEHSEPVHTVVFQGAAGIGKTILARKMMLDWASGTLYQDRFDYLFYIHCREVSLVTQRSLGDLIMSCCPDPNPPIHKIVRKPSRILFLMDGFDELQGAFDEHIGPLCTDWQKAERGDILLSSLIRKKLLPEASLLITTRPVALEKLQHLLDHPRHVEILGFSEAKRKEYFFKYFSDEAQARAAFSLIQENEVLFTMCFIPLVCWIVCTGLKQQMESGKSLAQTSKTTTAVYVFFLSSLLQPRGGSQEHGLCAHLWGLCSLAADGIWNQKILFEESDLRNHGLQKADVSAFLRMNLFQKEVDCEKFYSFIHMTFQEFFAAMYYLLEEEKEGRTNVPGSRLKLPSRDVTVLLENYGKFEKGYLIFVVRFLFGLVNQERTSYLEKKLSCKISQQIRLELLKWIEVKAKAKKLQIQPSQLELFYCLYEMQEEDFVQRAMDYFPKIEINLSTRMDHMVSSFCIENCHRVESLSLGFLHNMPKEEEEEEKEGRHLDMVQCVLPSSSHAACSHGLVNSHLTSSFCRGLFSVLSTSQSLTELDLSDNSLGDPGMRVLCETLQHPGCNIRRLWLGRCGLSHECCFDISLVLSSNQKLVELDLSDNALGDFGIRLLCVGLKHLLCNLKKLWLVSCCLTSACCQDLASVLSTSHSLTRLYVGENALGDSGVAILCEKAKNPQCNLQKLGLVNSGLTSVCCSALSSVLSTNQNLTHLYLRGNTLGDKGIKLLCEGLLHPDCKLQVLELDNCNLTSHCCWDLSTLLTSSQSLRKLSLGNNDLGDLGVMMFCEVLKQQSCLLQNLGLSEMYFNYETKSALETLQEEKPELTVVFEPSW

Regarding `O=C(Nc1c2c(cc3c1CCC3)CCC2)NS(=O)(=O)c1ccc(Cl)c2nonc12`, in series [1], the CC50 at 72 h was above 100 µM.
Same read-out and setting: the value for `CC(C)(O)c1coc(S(=O)(=O)NC(=O)Nc2c3c(cc4c2CCC4)CCC3)c1` was 81.4 µM; that for `O=C(Nc1c2c(cc3c1CCC3)CCC2)NS(=O)(=O)c1ccc(NC2CC(F)(F)C2)c2nonc12` was above 100 µM; that for `O=C(Nc1c2c(cc3c1CCC3)CCC2)NS(=O)(=O)c1ccc(N2CC3CCC(C2)O3)c2nonc12` was above 100 µM.
Still for that read-out and setting: the value for `CSc1ccc(S(=O)(=O)NC(=O)Nc2c3c(cc4c2CCC4)CCC3)c2nonc12` was above 100 µM.
As to `CN(C)c1ccc(S(=O)(=O)NC(=O)Nc2c3c(cc4c2CCC4)CCC3)c2n[se]nc12`, the half-maximal cytotoxic concentration (CC50) at 72 h in [1] is above 100 µM.
On the same count and under the same terms, under `O=C(Nc1c2c(cc3c1CCC3)CCC2)NS(=O)(=O)c1ccc(N2CCOCC2)c2nonc12` stands above 100 µM.
With `CN(C)c1ccc(S(=O)(=O)NC(=O)Nc2c3c(cc4c2CCC4)CCC3)c2nsnc12`, the CC50 at 72 h in [1] is above 100 µM. Besides, the result in series [2], in series [8] and in [9] was Active. In addition, the Activity in series [3] is 450 nm; in [4], 602 nm; in series [5], 8085 M⁻¹ cm⁻¹; in [6], 6%. The Drug uptake result in series [7] is “Active”.
For the compound `CN(C)c1cccc2c(S(=O)(=O)NC(=O)Nc3c4c(cc5c3CCC5)CCC4)cccc12`, the half-maximal inhibitory concentration (IC50) in series [10] is 9.18 µM. The CC50 at 72 h in series [1] was above 100 µM.
On to `O=C(Nc1c2c(cc3c1CCC3)CCC2)NS(=O)(=O)c1ccc(N2C[C@@H]3[C@@H](CO)[C@@H]3C2)c2nonc12`, for which the CC50 at 72 h in series [1] is above 100 µM.
In the case of `CN(C)c1ccc(S(=O)(=O)NC(=O)Nc2c3c(cc4c2CCC4)CCC3)c2nonc12`, the cytotoxic concentration (CC50) at 72 h in series [1] is above 100 µM. The outcome in [2] was Active. In addition, the Activity stood at 448 nm in [3], 586 nm in series [4], 7406 M⁻¹ cm⁻¹ in series [5] and 16% in series [6].
With `O=C(Nc1c2c(cc3c1CCC3)CCC2)NS(=O)(=O)c1ccc(N2CCN(CCO)CC2)c2nonc12`, the IC50 in [10] was determined as 2.38 µM. Further, the 50% cytotoxic concentration (CC50) at 72 h in series [1] was above 100 µM.
On to `CN(C)[C@@H]1CCCC[C@H]1N(C)c1ccc(S(=O)(=O)NC(=O)Nc2c3c(cc4c2CCC4)CCC3)c2nonc12`, for which the CC50 at 72 h in series [1] is above 100 µM.
As to `CC(C)(C)OC(=O)NC1CN(c2ccc(S(=O)(=O)NC(=O)Nc3c4c(cc5c3CCC5)CCC4)c3nonc23)C1`, the 50% cytotoxic concentration (CC50) at 72 h in series [1] was above 100 µM.

These data come from ChEMBL document CHEMBL5120824, “Synthesis and pharmacological validation of fluorescent diarylsulfonylurea analogues as NLRP3 inhibitors and imaging probes” (Eur J Med Chem, 2022).
